Experimental data as given in patent US11439147B2, “3-pyridyl oxyaniline compound and use of same” (Sumitomo Chemical Company, Limited, priority 2016, dated 2022).

Tests used:
Type in all cases: in vivo
[1] = system: Amaranthus retroflexus; assay: Post-emergence treatment test in a farmland (pot, foliar spray); settings: application rate 4 kg/ha; two-leaf stage, sprayed; nine days after spraying; visual, 11 stages 0 (no effect) to 10 (complete kill)
Protocol: Test Example 1: Post-emergence treatment test in a farmland
Nursery soil was put in a plastic pot measuring 8 cm in diameter and 6.5 cm in height, and in the pot, seeds of Amaranthus retroflexus were sown, and then covered with soil of about 0.5 cm thickness, and the plants were grown in a greenhouse. When the Amaranthus retroflexus plants were grown to two-leaf stage, a diluted solution containing any one of the present compound, the compound A, or the compound B was uniformly sprayed on the whole Amaranthus retroflexus plants so that the application rates of the chemicals would be values indicated in Table 1.
Here the diluted solution was prepared by dissolving the present compound, the compound A, or the compound B in dimethylformamide solution containing 2% of Tween 20 (polyoxyethylene sorbitan fatty acid ester) (manufactured by MP Biomedicals Inc.) and then diluting the solution with deionized water.
The Amaranthus retroflexus plants that were sprayed with the diluted solution containing the present compound, the compound A, or the compound B were grown in a greenhouse. Nine clays after spraying, the efficacy for controlling Amaranthus retroflexus plants was observed, thereby examining a herbicidal effect. Here the herbicidal effect was visually observed and evaluated by classifying the effect into 11 stages from 0 (no effect) to 10 (complete kill).

[2] = system: Lindernia procumbens; assay: Herbicidal effect, pot test in greenhouse (paddy water treatment); settings: twelve days after treatment, visual index 0 (no effect) to 100 (complete kill)
Excerpt: (§1) Herbicidal effect against Echinochloa oryzicola and Lindernia procumbens (Pot test in greenhouse) Soil was put in a plastic pot (φ 5 cm×5.5 cm), and soil was puddled, and the plastic pot was allowed to stand for 2 days, Lindernia procumbens seeds were mixed with soil, and sown to the surface of puddled soil in the pot. On the same day, the sprouted seeds of Echinochloa oryzicola were sown into about 0.5 cm depth from the soil surface of the pot, and the submerged depth was adjusted to about 2 cm. Treatment solutions containing the present, compound, the compound A, or the compound B were prepared by dissolving the present compound, the compound A, or the compound B in acetone, followed by diluting the resulting solutions with distilled water. On the same day as the sowing of Echinochloa oryzicola and Lindernia procumbens, the treatment solution containing the present compound, the compound A, or the compound B was poured into paddy water in the pot so that the application rates of the chemicals would be values indicated in Table 2. Twelve days after the treatment, the herbicidal effect on weeds was visually observed by classifying the effect into 0 to 100 indices (0 (no effect) to 100 (complete kill)).

[3] = system: Echinochloa oryzicola; assay: as above; settings: twelve days after treatment, visual index 0 (no effect) to 100 (complete kill)
Excerpt: as §1

[4] = system: Arabidopsis thaliana; assay: Inhibitory activity on emergence of Arabidopsis thaliana; settings: ten days after sowing, visual index 0: no effect to 100: no emergence
Protocol: Test Example 4: Inhibitory Activity on Emergence of Arabiclopsis thaliana Each well of 24 well microtiter plates was matted with a filter paper, and to the filter paper was added 150 μL of distilled water. To the distilled water was added a solution in which the present compound, the compound A, or the compound B was dissolved in dimethyl sulfoxide so that the concentration of each of the chemicals would be values indicated in Table 4. Next, seeds of Arabidopsis thaliana were sown into each well and grown under the condition that a cultivation at 25° C. under lighting for 16 hours and a successive cultivation at 25° C. under dark for 8 hours were repeated. Ten days after sowing, the inhibitory activity on emergence of Arabidopsis thaliana was visually evaluated by classifying the activity into 0 to 100 indices (0: no effect to 100: no emergence).

[5] = system: Echinochloa oryzicola; assay: Hydroponic test of Echinochloa oryzicola; settings: ten days, visual index 0 (no effect) to 100 (complete kill)
Protocol: Test Example 3: Hydroponic Test of Echinochloa oryzicola
Two (2) mL of distilled water was poured into a plastic tube (2.5 cm in inside diameter×10 cm in height). To the distilled water was added a solution in which the present compound or the compound A was dissolved in dimethyl sulfoxide to prepare the treatment solutions so that, the treatment concentration thereof would be values indicated in table 3. Next, four grains of sprouted Echinochloa oryzicola seeds were put in each treatment solution. The tubes were covered with parafilm, and the seeds were grown under the condition that a cultivation at 25° C. under lightning for 16 hours and a successive cultivation at 25° C. under dark for 8 hours were repeated. Ten days after the addition of the Echinochloa oryzicola seeds, the herbicidal effect on Echinochloa oryzicola was visually observed by classifying the effect into 0 to 100 indices (0 (no effect) to 100 (complete kill)).

[6] = application rate 50 g/a into paddy water
[7] = application rate 100 g/a into paddy water
[8] = treatment concentration 500 ppm
[9] = treatment concentration 1000 ppm
[10] = treatment concentration 125 ppm
[11] = treatment concentration 250 ppm

| SMILES | Herbicidal Effect [1] | Herbicidal Effect Lindernia procumbens [2, 6] | Herbicidal Effect Lindernia procumbens [2, 7] | Herbicidal Effect Echinochloa oryzicola [3, 6] | Herbicidal Effect Echinochloa oryzicola [3, 7] | Inhibitory Activity on Emergence [4, 8] | Inhibitory Activity on Emergence [4, 9] | Herbicidal Effect [5, 10] | Herbicidal Effect [5, 11] | Herbicidal Effect [5, 8] |
| --- | --- | --- | --- | --- | --- | --- | --- | --- | --- | --- |
| CCOC(=O)COc1ncccc1Oc1cc(N)c(F)cc1Cl [Compound A, 4-chloro-2-fluoro-5-{2-(ethoxycarbonyl)methoxy-3-pyridyloxy}aniline] | 1 | 0 | 0 | 0 | 10 | 0 | 0 | 0 | 0 | 0 |
| CCOC(=O)COc1ncccc1Oc1cc(NC(=O)CC(=O)C(F)(F)F)c(F)cc1Cl [Compound B] | 3 | 0 | 0 | 0 | 0 | 0 | 0 |  |  |  |
| CCOC(=O)COc1ncccc1Oc1cc(NC(=O)C=C(Nc2cc(Oc3cccnc3OCC(=O)OCC)c(Cl)cc2F)C(F)(F)F)c(F)cc1Cl [Present compound] | 8 | 50 | 60 | 100 | 100 | 100 | 100 | 100 | 100 | 100 |
